Source: patent US12692262B2, “Substituted ureas as orexin receptor agonists” (Merck Sharp & Dohme LLC, priority 2020, dated 2026)

Target: T1, human OX2R (Homo sapiens, UniProt O43614)
T1 construct: expressed in transfected cells; host or cells: CHO (Chinese hamster ovary) cells grown under G418 selection
T1 sequence (O43614 1-444): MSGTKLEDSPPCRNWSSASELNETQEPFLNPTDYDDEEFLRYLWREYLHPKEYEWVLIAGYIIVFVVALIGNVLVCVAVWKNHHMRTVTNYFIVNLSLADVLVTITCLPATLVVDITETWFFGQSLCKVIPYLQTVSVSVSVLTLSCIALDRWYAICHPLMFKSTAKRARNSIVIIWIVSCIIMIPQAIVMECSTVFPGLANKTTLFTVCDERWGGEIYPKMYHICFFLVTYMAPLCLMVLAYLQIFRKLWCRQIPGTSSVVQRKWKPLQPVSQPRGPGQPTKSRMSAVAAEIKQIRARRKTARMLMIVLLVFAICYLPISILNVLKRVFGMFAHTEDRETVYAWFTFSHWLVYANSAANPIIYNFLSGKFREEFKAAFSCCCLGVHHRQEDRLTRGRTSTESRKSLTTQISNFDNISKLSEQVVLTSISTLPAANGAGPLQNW
Assay: IPOne (IP-1 accumulation) assay in CHO cells expressing human OX2R
Assay type: cell-based
Conditions: for EC50: CHO cells expressing human OX2R, IP-One assay, 2 h incubation, four parameter logistic fit, read-out: OX2R Potency, EC50; for % of maximum agonist effect (relative to Orexin A): percent effect vs mean max effect of a reference compound at 1 uM (100% activity vs Orexin A), human OX2R
Summary of the method: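 Agonist EC50 values come from the inflection point of four-parameter logistic curves. Read-out is IP-1 accumulation detected with lysis buffer plus D2 and AB-cryptate reagents (HTRF), in CHO cells engineered to express human OX2R.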

Row | SMILES | EC50 [nM] | % of maximum agonist effect (relative to Orexin A) [%] | % of maximum agonist effect (relative to Orexin A) (1 µM) [%]
1 | CCN(C(=O)N[C@@H](CCC(F)(F)F)C(F)(F)F)[C@H](C)c1cnc(OC)c(-c2cn3ccnc3c(OC)n2)c1 [Example 11-4, 1-ethyl-3-((S)-1,1,1,5,5,5-hexafluoropentan-2-yl)-1-((R)-1-(6-methoxy-5-(8-methoxyimidazo[1,2-a]pyrazin-6-yl)pyridin-3-yl)ethyl)urea] | 0.7 | 101.6 | 
2 | CCN(C(=O)N[C@@H](CCC(F)(F)F)C(F)(F)F)[C@H](C)c1cc(-c2cc(OC)n3nccc3c2)c(OC)cn1 [Example 11-5, 1-ethyl-3-((S)-1,1,1,5,5,5-hexafluoropentan-2-yl)-1-((R)-1-(5-methoxy-4-(7-methoxypyrazolo[1,5-a]pyridin-5-yl)pyridin-2-yl)ethyl)urea] | 0.6 | 100.1 | 
3 | CCN(C(=O)N[C@@H](CCC(F)(F)F)C(F)(F)F)[C@H](C)c1cc(-c2cn3ccnc3c(OC)n2)c(OC)cn1 [Example 12-1, 1-ethyl-3-((S)-1,1,1,5,5,5-hexafluoropentan-2-yl)-1-((R)-1-(5-methoxy-4-(8-methoxyimidazo[1,2-a]pyrazin-6-yl)pyridin-2-yl)ethyl)urea] | 0.6 | 100.1 | 
4 | CCN(C(=O)N[C@@H](CCC(F)(F)F)C1CC1)[C@H](C)c1cnc(OC)c(-c2cn3ccnc3c(OC)n2)c1 [Example 12-2, 3-((S)-1-cyclopropyl-4,4,4-trifluorobutyl)-1-ethyl-1-((R)-1-(6-methoxy-5-(8-methoxyimidazo[1,2-a]pyrazin-6-yl)pyridin-3-yl)ethyl)urea] | 1.2 | 100.6 | 
5 | CCN(C(=O)N[C@@H](CCC(F)(F)F)C(F)(F)F)C(C)c1ccnc(-c2cn3ccnc3c(OC)n2)c1 (stereo partly drawn) [Example 13-1, 1-ethyl-3-((S)-1,1,1,5,5,5-hexafluoropentan-2-yl)-1-(1-(2-(8-methoxyimidazo[1,2-a]pyrazin-6-yl)pyridin-4-yl)ethyl)urea] | 11.7 | 101.4 | 
6 | CCN(C(=O)N[C@@H](CCC(F)(F)F)C(F)(F)F)C(C)c1cc(-c2cn3ccnc3c(OC)n2)ncn1 (stereo partly drawn) [Example 13-2, 1-ethyl-3-((S)-1,1,1,5,5,5-hexafluoropentan-2-yl)-1-(1-(6-(8-methoxyimidazo[1,2-a]pyrazin-6-yl)pyrimidin-4-yl)ethyl)urea] | 16.8 | 101.4 | 
7 | CCN(C(=O)N[C@@H](CCC(F)(F)F)C(F)(F)F)[C@H](C)c1cc(-c2cn3ccnc3c(OC)n2)ccn1 [Example 14-1, 1-ethyl-3-((S)-1,1,1,5,5,5-hexafluoropentan-2-yl)-1-((R)-1-(4-(8-methoxyimidazo[1,2-a]pyrazin-6-yl)pyridin-2-yl)ethyl)urea] | 1.5 | 100.3 | 
8 | CC[C@H](CCC(F)(F)F)NC(=O)N(CC)[C@H](C)c1ccc(Cl)c(-c2cc(OC)c3nccn3c2)c1 [Example 14-2, 1-((R)-1-(4-chloro-3-(8-methoxyimidazo[1,2-a]pyridin-6-yl)phenyl)ethyl)-1-ethyl-3-((R)-6,6,6-trifluorohexan-3-yl)urea] | 2.6 | 96.0 | 
9 | CCN(C(=O)N[C@@H](CCC(F)(F)F)C(F)(F)F)C(C)c1cc(-c2cc(F)c3nccn3c2)c(OC)cn1 (stereo partly drawn) [Example 15-2, 1-ethyl-1-(1-(4-(8-fluoroimidazo[1,2-a]pyridin-6-yl)-5-methoxypyridin-2-yl)ethyl)-3-((S)-1,1,1,5,5,5-hexafluoropentan-2-yl)urea] | 1 | 99.1 | 
10 | CCN(C(=O)NC(CNS(=O)(=O)N(C)C)C(F)(F)F)[C@H](C)c1cccc(-c2cn3ccnc3c(OC)n2)c1 (stereo partly drawn) [Example 17, N-{3-[(dimethylsulfamoyl)amino]-1,1,1-trifluoropropan-2-yl}-N-ethyl-N-{(1R)-1-[3-(8-methoxyimidazo[1,2-a]pyrazin-6-yl)phenyl]ethyl}urea] | 0.7 | 101.8 | 
11 | CC[C@H](CCC(F)(F)F)NC(=O)N(CC)C(C)(C)c1cccc(-c2ccc3nccn3c2)c1 [Example 18, (R)-1-ethyl-1-(2-(3-(imidazo[1,2-a]pyridin-6-yl)phenyl)propan-2-yl)-3-(6,6,6-trifluorohexan-3-yl)urea] | 126 | 99.6 | 
12 | C=Cc1ccc([C@@H](C)N(CC)C(=O)N[C@H](CC)CCC(F)(F)F)cc1-c1ccc2nccn2c1 [Example 19, 1-ethyl-1-((R)-1-(3-(imidazo[1,2-a]pyridin-6-yl)-4-vinylphenyl)ethyl)-3-((R)-6,6,6-trifluorohexan-3-yl)urea] | 23.2 | 94.9 | 
13 | CCN(C(=O)N[C@@H](C=C(C)C)C(F)(F)F)[C@H](C)c1cccc(-c2cn3ccnc3c(OC)n2)c1 [Example 20, 1-ethyl-1-((R)-1-(3-(8-methoxyimidazo[1,2-a]pyrazin-6-yl)phenyl)ethyl)-3-((S)-1,1,1-trifluoro-4-methylpent-3-en-2-yl)urea] |  |  | 100.1
14 | CCN(C(=O)NC(COC(C)=O)C(F)(F)F)[C@H](C)c1cccc(-c2cn3ccnc3c(OC)n2)c1 (stereo partly drawn) [Example 22, 2-(3-ethyl-3-((R)-1-(3-(8-methoxyimidazo[1,2-a]pyrazin-6-yl)phenylethyl)ureido)-3,3,3-trifluoropropyl acetate] | 25.3 | 97.0 | 
15 | CC[C@H](CCC(F)(F)F)NC(=O)N(CC)[C@H](C)c1cccc(-c2cc3c(c(OC)c2)NCC3)c1 [Example 25, 1-ethyl-1-((R)-1-(3-(7-methoxyindolin-5-yl)phenyl)ethyl)-3-((R)-6,6,6-trifluorohexan-3-yl)urea] | 619 | 98.5 | 
16 | CCN(C(=O)N[C@@H](CCC(F)(F)F)C(F)(F)F)[C@H](C)c1cccc(-c2cc(OC)c3nc(O)cn3c2)c1 [Example 26, 1-ethyl-3-((S)-1,1,1,5,5,5-hexafluoropentan-2-yl)-1-((R)-1-(3-(2-hydroxy-8-methoxyimidazo[1,2-a]pyridin-6-yl)phenyl)ethyl)urea] | 144 | 89.1 | 
17 | CCN(C(=O)N[C@@H](CCC(F)(F)F)C(F)(F)F)[C@H](C)c1cccc(-c2cc(OC)c3nc(C(F)(F)F)cn3c2)c1 [Example 27, 1-ethyl-3-((S)-1,1,1,5,5,5-hexafluoropentan-2-yl)-1-((R)-1-(3-(8-methoxy-2-(trifluoromethyl)imidazo[1,2-a]pyridin-6-yl)phenyl)ethyl)urea] | 619 | 98.5 | 
